In US20040106651A1, “3,4-diaminopyriding tartrate and phosphate, pharmaceutical compositions and uses thereof” (priority 2001, published 2004):

Experiment: Stability study in hard gelatin capsules under ICH storage conditions
Assay type: physicochemical
Conditions: for Stability under the storage conditions in accordance with the international recommendations: general statement; for Stability formulated in hard gelatin capsules: conclusion from tables I and II
Method: 3,4-DAP tartrate, as prepared above in example 1, was introduced into hard gelatin capsules made of gelatin of size No. 3 in a proportion of 10 mg (expressed as weight of 3,4-DAP in the free base form) per hard gelatin capsule (Hard gelatin capsules A).
In the same way and by way of comparison, hard gelatin capsules made of gelatin of size No. 3 including 10 mg of 3,4-DAP per hard gelatin capsule were prepared (Hard gelatin capsules B).
A stability study on 3,4-DAP tartrate and on 3,4-DAP, introduced respectively into hard gelatin capsules A and B, was subsequently carried out.
This study was carried out under the conditions recommended by the international recommendations for the study of the stability of active principles (International Conference on Harmonization, Draft Guideline on Stability Testing of New Drug and Product, November 1999, CPMP/ICH/2736/99).

For `Nc1ccncc1N.O=P(O)(O)O` [3,4-DAP phosphate, 3,4-diaminopyridine Phosphate], the “Stability under the storage conditions in accordance with the international recommendations” value (“Stability under the storage conditions” for short) was “very high stability”.

For `Nc1ccncc1N.O=C(O)C(O)C(O)C(=O)O` (centres unmarked) [3,4-DAP tartrate, 3,4-diaminopyridine Tartrate], the “Stability formulated in hard gelatin capsules” value was “great stability” and the “Stability under the storage conditions” value was “very high stability”.

With `Nc1ccncc1N` [3,4-DAP, 3,4-diaminopyridine, reference compound] the “Stability formulated in hard gelatin capsules” value was “unstable” and the “Stability under the storage conditions” value was “unstable”.
